Values of other authors, collected in PubChem BioAssay AID1259409 (Chemical Carcinogenesis Research Information System (CCRIS), 2018).

Tested on: rodent chemically induced tumor inhibition, incidence and multiplicity
Assay: CCRIS tumor inhibitor studies
Details: 937-40-6, Dose [Inhibitor]: 0, Route [Inhibitor]: ORAL, Species: RAT, Promoter: NONE USED

SMILES: O=c1oc2c(O)c(O)cc3c(=O)oc4c(O)c(O)cc1c4c23
- tumour outcome (control, treated, inhibition, significance) (Carcinogen: N-NITROSOBENZYLMETHYLAMINE, 1.2 UMOL/G IN DIET FOR DURATION OF STUDY BEGINNING 2 WK PRIOR TO CARCINOGEN TREATMENT (STUDY DURATION: 20 WK), Strain/Sex: F344/MALE, Target Tissue: Type of Lesion: ESOPHAGUS: TUMORS, Dose [Carcinogen]: 0.5 MG/KG IN 0.1 ML OF DMSO 1/WK FOR 18 WK): 15/15 (100%), 14/15 (93%), 7%, not significant
- tumour outcome (control, treated, inhibition, significance) (Carcinogen: N-NITROSOBENZYLMETHYLAMINE, 1.2 UMOL/G IN DIET FOR DURATION OF STUDY BEGINNING 2 WK PRIOR TO CARCINOGEN TREATMENT (STUDY DURATION: 20 WK), Strain/Sex: F344/MALE, Target Tissue: Type of Lesion: ESOPHAGUS: TUMORS, Dose [Carcinogen]: 1.25 MG/KG IN 0.1 ML OF DMSO 1/WK FOR 18 WK): 15/15 (100%), 15/15 (100%), 0%, not significant
- tumour outcome (control, treated, inhibition, significance) (Carcinogen: N-NITROSOBENZYLMETHYLAMINE, 1.2 UMOL/G IN DIET FOR DURATION OF STUDY BEGINNING 2 WK PRIOR TO CARCINOGEN TREATMENT (STUDY DURATION: 27 WK), Strain/Sex: F344/MALE, Target Tissue: Type of Lesion: ESOPHAGUS: TUMORS, Dose [Carcinogen]: 0.5 MG/KG IN 0.1 ML OF DMSO 1/WK FOR 18 WK): 15/15 (100%), 15/15 (100%), 0%, not significant
- tumour outcome (control, treated, inhibition, significance) (Carcinogen: N-NITROSOBENZYLMETHYLAMINE, 1.2 UMOL/G IN DIET FOR DURATION OF STUDY BEGINNING 2 WK PRIOR TO CARCINOGEN TREATMENT (STUDY DURATION: 27 WK), Strain/Sex: F344/MALE, Target Tissue: Type of Lesion: ESOPHAGUS: TUMORS, Dose [Carcinogen]: 1.25 MG/KG IN 0.1 ML OF DMSO 1/WK FOR 18 WK): 15/15 (100%), 15/15 (100%), 0%, not significant
- tumour outcome (control, treated, inhibition, significance) (Carcinogen: N-NITROSOBENZYLMETHYLAMINE, 4 G/KG IN DIET BEGINNING 2 WK PRIOR TO FIRST CARCINOGEN DOSE (STUDY DURATION: 20 WK), Strain/Sex: F-344/MALE, Target Tissue: Type of Lesion: ESOPHAGUS: TUMOR, Dose [Carcinogen]: 0.5, 1.25 MG/KG 1/WK FOR 18 WK): 15/15 (100%), 12/15 (80%), 20%, not calculated (low dose carcinogen); 15/15 (100
- tumour outcome (control, treated, inhibition, significance) (Carcinogen: N-NITROSOBENZYLMETHYLAMINE, 4 G/KG IN DIET BEGINNING 2 WK PRIOR TO FIRST CARCINOGEN DOSE (STUDY DURATION: 27 WK), Strain/Sex: F-344/MALE, Target Tissue: Type of Lesion: ESOPHAGUS: TUMOR, Dose [Carcinogen]: 0.5, 1.25 MG/KG 1/WK FOR 18 WK): 15/15 (100%), 15/15 (100%), 0%, not calculated (low dose carcinogen); 15/15 (100
- tumour outcome (control, treated, inhibition, significance) (Carcinogen: N-NITROSOBENZYLMETHYLAMINE, 12 UMOL/G IN DIET FOR DURATION OF STUDY BEGINNING 2 WK PRIOR TO CARCINOGEN TREATMENT (STUDY DURATION: 20 WK), Strain/Sex: F344/MALE, Target Tissue: Type of Lesion: ESOPHAGUS: TUMORS, Dose [Carcinogen]: 0.5 MG/KG IN 0.1 ML OF DMSO 1/WK FOR 18 WK): 15/15 (100%), 12/15 (80%), 20%, not significant
- tumour outcome (control, treated, inhibition, significance) (Carcinogen: N-NITROSOBENZYLMETHYLAMINE, 12 UMOL/G IN DIET FOR DURATION OF STUDY BEGINNING 2 WK PRIOR TO CARCINOGEN TREATMENT (STUDY DURATION: 20 WK), Strain/Sex: F344/MALE, Target Tissue: Type of Lesion: ESOPHAGUS: TUMORS, Dose [Carcinogen]: 1.25 MG/KG IN 0.1 ML OF DMSO 1/WK FOR 18 WK): 15/15 (100%), 15/15 (100%), 0%, not significant
- tumour outcome (control, treated, inhibition, significance) (Carcinogen: N-NITROSOBENZYLMETHYLAMINE, 12 UMOL/G IN DIET FOR DURATION OF STUDY BEGINNING 2 WK PRIOR TO CARCINOGEN TREATMENT (STUDY DURATION: 27 WK), Strain/Sex: F344/MALE, Target Tissue: Type of Lesion: ESOPHAGUS: TUMORS, Dose [Carcinogen]: 0.5 MG/KG IN 0.1 ML OF DMSO 1/WK FOR 18 WK): 15/15 (100%), 15/15 (100%), 0%, not significant
- tumour outcome (control, treated, inhibition, significance) (Carcinogen: N-NITROSOBENZYLMETHYLAMINE, 12 UMOL/G IN DIET FOR DURATION OF STUDY BEGINNING 2 WK PRIOR TO CARCINOGEN TREATMENT (STUDY DURATION: 27 WK), Strain/Sex: F344/MALE, Target Tissue: Type of Lesion: ESOPHAGUS: TUMORS, Dose [Carcinogen]: 1.25 MG/KG IN 0.1 ML OF DMSO 1/WK FOR 18 WK): 15/15 (100%), 15/15 (100%), 0%, not significant
- tumour outcome (control, treated, inhibition, significance) (Carcinogen: N-NITROSOMETHYLBENZYLAMINE, 400 PPM IN DIET FOR DURATION OF STUDY BEGINNING 1 WK POST CARCINOGEN TREATMENT (STUDY DURATION: 25 WK), Strain/Sex: F344/MALE, Target Tissue: Type of Lesion: ESOPHAGUS: TUMOR, Dose [Carcinogen]: 1 MG/KG 3/WK FOR 5 WK): 15/15 (100%), 14/15 (93%), 7%, not significant
- tumour outcome (control, treated, inhibition, significance) (Carcinogen: N-NITROSOMETHYLBENZYLAMINE, 4000 PPM IN DIET FOR DURATION OF STUDY BEGINNING 1 WK POST CARCINOGEN TREATMENT (STUDY DURATION: 25 WK), Strain/Sex: F344/MALE, Target Tissue: Type of Lesion: ESOPHAGUS: TUMOR, Dose [Carcinogen]: 1 MG/KG 3/WK FOR 5 WK): 15/15 (100%), 10/15 (67%), 33%, p<0.05
